# Read-outs that look alike come from different tables or passages of the source.
# Experiments:
# GLT-1 [1] = details: cited from earlier work; for expression of GLT-1: SOD1 mouse model of ALS
# [2] = test system: amyotrophic lateral sclerosis; details: 50 mg daily; after 15 months of treatment; cited from earlier work
# GLT-1 [3] = details: decreased by repeated cocaine administration; cited from earlier work
# [4] = rats; Sari et al., 2009; Knackstead et al., 2010; cited from earlier work
# [5] = cited from earlier work
# planarian = planarian model; Rawls et al., 2008; cited from earlier work
# GLT-1 [6] = details: Rothstein et al., 2005; Lee et al., 2008; cited from earlier work
# [7] = test system: cysteine-glutamate exchanger; details: decreased by repeated cocaine administration; cited from earlier work
# [8] = Nakagura et al. (2005); cited from earlier work
# GLT-1 [9] = details: 50 mg/kg daily IP, last 6 days of extinction training; cocaine self-administering rats; nucleus accumbens core, normalized to calnexin; FIG. 1
smiles,measurement,setting,value
COc1ccc2c(c1)[nH]c1c(C)nccc12 [Harmine],expression of GLT-1,GLT-1 [1],increases GLT-1 expression
Nc1nc2ccc(OC(F)(F)F)cc2s1 [Riluzole],increase in life expectancy,[2],2-3 months
CO/N=C(\C(=O)N[C@@H]1C(=O)N2C(C(=O)O)=C(CSc3nc(=O)c(=O)[nH]n3C)CS[C@H]12)c1csc(N)n1 [ceftriaxone],GLT-1 levels,GLT-1 [3],restores
same,relapse to cocaine seeking,[4],prevents relapse to cocaine seeking
same,"free, unbound cerebrospinal fluid/plasma ratio based on Cmax","[5]; Chadwick et al., 1983",2-13%
same,"free, unbound cerebrospinal fluid/plasma ratio based on AUCs","[5]; Lutsar and Friedland, 2000",1%
same,abstinence withdrawal from cocaine,planarian,inhibits abstinence withdrawal from cocaine
same,expression of GLT-1,GLT-1 [1],increases the expression of GLT-1
same,mean survival time,GLT-1 [1]; SOD1 mouse,increases the mean survival time
same,GLT-1 expression,GLT-1 [6],stimulator of GLT-1 expression
same,cysteine-glutamate exchanger levels,[7],restores
CC1CC=NN1C(=O)c1cccnc1 (stereo not shown) [MS-153],conditioned place preference induced by cocaine,[8],inhibited the conditioned place preference induced by cocaine
C[C@@H](O)[C@H]1C(=O)N[C@@H]1[C@@H](C)C(=O)N1CCN(C)CC1 [MC-100093],GLT-1 expression,GLT-1 [9],restored GLT-1 expression levels to normal
